Laboratory results: US20090131468A1, “Bis-(Sulfonylamino) Derivatives in Therapy 065” (AstraZeneca AB, priority 2007, published 2009)
pIC50: −log10 of the molar value.

The compounds below were run against T1, human mPGES-1 (Homo sapiens, UniProt O14684) (assay: Microsomal prostaglandin E synthase biochemical assay). Conditions: microsome preparation containing human mPGES-1; PGH2 10.8 μM, GSH 2.5 mM, pH 6.8; PGE2 quantified by HTRF; average of at least n=2.
T1 sequence (O14684 1-152): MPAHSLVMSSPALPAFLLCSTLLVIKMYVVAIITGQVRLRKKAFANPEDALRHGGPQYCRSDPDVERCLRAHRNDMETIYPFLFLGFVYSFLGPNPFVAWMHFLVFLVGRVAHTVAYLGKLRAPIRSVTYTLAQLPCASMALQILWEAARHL
Experimental: Compounds were tested as inhibitors of microsomal prostaglandin E synthase activity in microsomal prostaglandin E synthase assays and whole cell assays. These assays measure prostaglandin E2 (PGE2) synthesis which is taken as a measure of prostaglandin E synthase activity. Microsomal prostaglandin E synthase biochemical assays used microsomal prostaglandin E synthase-1 in microsomal preparations. The source of the microsomes can be for example interleukin-1β-stimulated human A549 cells (which express human mPGES-1) or Sf9 cells transfected with plasmids encoding human mPGES-1 cDNA.
A solution of test compound was added to a diluted microsome preparation containing human mPGES-1 and pre-incubated for 15 minutes in potassium phosphate buffer pH 6.8 with cofactor glutathione (GSH). Corresponding solutions without test compound were used as positive controls, and corresponding solutions without test compound and without microsomes were used as negative controls. The enzymatic reaction was then started by addition of the substrate PGH2 in an organic solution (dry acetonitrile).
The reaction was stopped after one minute by adding an acidic solution (pH 1.9) of ferric chloride and citrate (final concentrations 7 mM and 47 mM respectively), by which the PGH2 was sequestered (the PGH2 is reduced to mainly 12-hydroxy heptadecatrineoic acid (12-HHT) which is not detected by the subsequent PGE2 detection step). The resulting solution was then pH neutralized by addition of potassium phosphate buffer, prior to diluting an aliquot of the resulting solution in a weak potassium phosphate buffer (50 mM, pH 6.8) containing 0.2% BSA (w/v). […] The PGE2 formed was quantified by use of a commercial HTRF based kit (catalogue #62PG2PEC or #62P2APEC from Cisbio International). 100% activity was defined as the PGE2 production in positive controls subtracted by the PGE2 production in the negative controls. IC50 values were then determined using standard procedures.
In the case of `CCOC(=O)c1ccc(-c2ccc(C(=O)NS(=O)(=O)c3ccccc3S(N)(=O)=O)o2)cc1` [Example 41, Ethyl 4-[5-[(2-Sulfamoylphenyl)sulfonylcarbamoyl]-2-furyl]benzoate], the pIC50 was 5.27. `CC(C)Oc1cc(C(=O)NS(=O)(=O)c2ccccc2S(N)(=O)=O)ccc1C#CC1CCCCC1` [Example 131, 4-(Cyclohexylethynyl)-3-isopropoxy-N-(2-sulfamoylphenylsulfonyl)benzamide] gave a pIC50 of 7.85. Work on `NS(=O)(=O)c1ccccc1S(=O)(=O)NC(=O)c1ccc(-c2cccc(Cl)c2Cl)cn1` [Example 2, 5-(2,3-Dichlorophenyl)-N-(2-sulfamoylphenyl)sulfonyl-pyridine-2-carboxamide] yielded a pIC50 of 5.70. `NS(=O)(=O)c1ccccc1S(=O)(=O)NC(=O)c1ccc(-c2nc3cnccc3o2)cc1` [Example 6, 4-(7-Oxa-3,9-diazabicyclo [4.3.0]nona-2,4,8,10-tetraen-8-yl)-N-(2-sulfamoylphenyl)-sulfonyl-benzamide] gave a pIC50 of 5.96. With `CC(C)Oc1cc(C(=O)NS(=O)(=O)c2ccccc2S(N)(=O)=O)ccc1C#CC1CCCC1` [Example 130, 4-(Cyclopentylethynyl)-3-isopropoxy-N-(2-sulfamoylphenylsulfonyl)benzamide] the pIC50 was 7.70. In the case of `Cc1nc(-c2cccc(C(F)(F)F)c2)sc1C(=O)NS(=O)(=O)c1ccccc1S(N)(=O)=O` [Example 22, 4-Methyl-N-(2-sulfamoylphenyl)sulfonyl-2-[3-(trifluoromethyl)phenyl]1,3-thiazole-5-carboxamide], the pIC50 was 7.52. Work on `NS(=O)(=O)c1ccccc1S(=O)(=O)NC(=O)c1ccc(C#Cc2cccnc2)cc1` [Example 70, 4-(Pyridin-3-ylethynyl)-N-(2-sulfamoylphenylsulfonyl)benzamide] yielded a pIC50 of 6.49. In the case of `CC(C)(C)C#Cc1ncc(C(=O)NS(=O)(=O)c2ccccc2S(N)(=O)=O)cc1Cl` [Example 149, 5-Chloro-6-(3,3-dimethylbut-1-ynyl)-N-(2-sulfamoylphenylsulfonyl)nicotinamide], the pIC50 was 7.19. `CC(C)Oc1cc(C(=O)NS(=O)(=O)c2ccccc2S(N)(=O)=O)cnc1C#CC1CCCC1` [Example 143, 6-(Cyclopentylethynyl)-5-isopropoxy-N-(2-sulfamoylphenylsulfonyl)nicotinamide] showed a pIC50 of 7.85. Work on `COc1c(-c2cc3ccccc3o2)ccc(C(=O)NS(=O)(=O)c2ccccc2S(N)(=O)=O)c1C` [Example 69, 4-(Benzofuran-2-yl)-3-methoxy-2-methyl-N-(2-sulfamoylphenylsulfonyl)benzamide] yielded a pIC50 of 7.10. `Cc1nc(-c2ccccc2)sc1C(=O)NS(=O)(=O)c1ccccc1S(N)(=O)=O` [Example 29, 4-Methyl-2-phenyl-N-(2-sulfamoylphenyl)sulfonyl-1,3-thiazole-5-carboxamide] showed a pIC50 of 6.54. Compound `NS(=O)(=O)c1ccccc1S(=O)(=O)NC(=O)c1ccc(Br)cc1O` [Example 82, 4-Bromo-2-hydroxy-N-(2-sulfamoylphenylsulfonyl)benzamide] has a pIC50 of 6.27. Work on `CC(C)(C)C#Cc1ccc(C(=O)NS(=O)(=O)c2ccccc2S(N)(=O)=O)cc1F` [Example 73, 4-(3,3-Dimethylbut-1-ynyl)-3-fluoro-N-(2-sulfamoylphenylsulfonyl)benzamide] yielded a pIC50 of 7.22. `Cn1c(C(=O)NS(=O)(=O)c2ccccc2S(N)(=O)=O)cc2ccccc21` [Example 33, 1-Methyl-N-(2-sulfamoylphenyl)sulfonyl-indole-2-carboxamide] gave a pIC50 of 5.34. For `NS(=O)(=O)c1ccccc1S(=O)(=O)NC(=O)c1cccc(COCC(F)(F)C(F)F)c1` [Example 21, N-(2-Sulfamoylphenyl)sulfonyl-3-(2,2,3,3-tetrafluoropropoxymethyl)benzamide], the pIC50 was 5.66. With `NS(=O)(=O)c1ccccc1S(=O)(=O)NC(=O)c1cnc(C#CC2CCCC2)c(Cl)c1` [Example 148, 5-Chloro-6-(cyclopentylethynyl)-N-(2-sulfamoylphenylsulfonyl)nicotinamide] the pIC50 was 7.66. `NS(=O)(=O)c1ccccc1S(=O)(=O)NC(=O)c1ccc(Br)cc1O` [Example 49a, 4-Bromo-2-hydroxy-N-(2-sulfamoylphenylsulfonyl)benzamide] gave a pIC50 of 6.27. `COC(C)(C)C#Cc1ccc(C(=O)NS(=O)(=O)c2ccccc2S(N)(=O)=O)cc1O` [Example 115, 3-Hydroxy-4-(3-methoxy-3-methylbut-1-ynyl)-N-(2-sulfamoylphenylsulfonyl)-benzamide] gave a pIC50 of 5.37. `NS(=O)(=O)c1ccccc1S(=O)(=O)NC(=O)c1sc2cc(Cl)ccc2c1Cl` [Example 39, 3,6-Dichloro-N-(2-sulfamoylphenyl)sulfonyl-benzothiophene-2-carboxamide] showed a pIC50 of 7.09. For `NS(=O)(=O)c1ccccc1S(=O)(=O)NC(=O)c1ccc(Cl)cc1F` [Example 23, 4-Chloro-2-fluoro-N-(2-sulfamoylphenyl)sulfonyl-benzamide], the pIC50 was 6.00. `NS(=O)(=O)c1ccccc1S(=O)(=O)NC(=O)[C@H]1CC[C@H](c2cc3ccccc3o2)CC1` [Example 106, (1r,4r)-4-(Benzofuran-2-yl)-N-(2-sulfamoylphenylsulfonyl)cyclohexanecarboxamide] gave a pIC50 of 6.85. `COCCOCCOc1cc(C(=O)NS(=O)(=O)c2ccccc2S(N)(=O)=O)cnc1C#CC1CCCC1` [Example 136, 6-(Cyclopentylethynyl)-5-(2-(2-methoxyethoxy)ethoxy)-N-(2-sulfamoylphenyl-sulfonyl)nicotinamide] showed a pIC50 of 7.19. `C[C@]1(C(=O)NS(=O)(=O)c2ccccc2S(N)(=O)=O)CC[C@@H](c2cc3ccccc3o2)CC1` [Example 109, (1s,4s)-4-(Benzofuran-2-yl)-1-methyl-N-(2-sulfamoylphenylsulfonyl) cyclohexane-carboxamide] showed a pIC50 of 6.57. Work on `CC(C)(C)C#Cc1ccc(C(=O)NS(=O)(=O)c2ccccc2S(N)(=O)=O)c(F)c1` [Example 84, 4-(3,3-Dimethylbut-1-ynyl)-2-fluoro-N-(2-sulfamoylphenylsulfonyl)benzamide] yielded a pIC50 of 6.77. In the case of `Cc1nc(-c2cccc(Cl)c2)sc1C(=O)NS(=O)(=O)c1ccccc1S(N)(=O)=O` [Example 42, 2-(3-Chlorophenyl)-4-methyl-N-(2-sulfamoylphenyl)sulfonyl-1,3-thiazole-5-carboxamide], the pIC50 was 6.96. Compound `CC(C)C#Cc1ccc(C(=O)NS(=O)(=O)c2ccccc2S(N)(=O)=O)cn1` [Example 99, 6-(3-Methylbut-1-ynyl)-N-(2-sulfamoylphenylsulfonyl)nicotinamide] has a pIC50 of 6.40. Compound `CC(C)(C)C#Cc1ccc(C(=O)NS(=O)(=O)c2ccccc2S(N)(=O)=O)cn1` [Example 116, 6-(3,3-Dimethylbut-1-ynyl)-N-(2-sulfamoylphenylsulfonyl)nicotinamide] has a pIC50 of 6.46. Compound `NS(=O)(=O)c1ccccc1S(=O)(=O)NC(=O)c1ccc(-c2ccccc2)s1` [Example 35, 5-Phenyl-N-(2-sulfamoylphenyl)sulfonyl-thiophene-2-carboxamide] has a pIC50 of 6.28. Compound `NS(=O)(=O)c1ccccc1S(=O)(=O)NC(=O)c1ccc2oc(C3CC3)cc2c1` [Example 126, 2-Cyclopropyl-N-(2-sulfamoylphenylsulfonyl)benzofuran-5-carboxamide] has a pIC50 of 6.59. `NS(=O)(=O)c1ccccc1S(=O)(=O)NC(=O)c1ccc(-c2ccc(Cl)c(Cl)c2)o1` [Example 36, 5-(3,4-Dichlorophenyl)-N-(2-sulfamoylphenyl)sulfonyl-furan-2-carboxamide] was tested, and the pIC50 was 6.55.
